Legend:
[1] = biological target: Dipeptidyl peptidase IV (Porphyromonas gingivalis) (UniProt O31048); test: Inhibition of Porphyromonas gingivalis N-terminal His-tagged DPP4 expressed in Escherichia coli at 100 uM using Gly-Pro-p-nitroanilide as substrate relative to control
Dipeptidyl peptidase IV = Dipeptidyl peptidase IV (Porphyromonas gingivalis, UniProt O31048); test: Inhibition of Porphyromonas gingivalis N-terminal His-tagged DPP4 expressed in Escherichia coli using Gly-Pro-p-nitroanilide as substrate
Sequence of Dipeptidyl peptidase IV (O31048 20-723 limits assumed): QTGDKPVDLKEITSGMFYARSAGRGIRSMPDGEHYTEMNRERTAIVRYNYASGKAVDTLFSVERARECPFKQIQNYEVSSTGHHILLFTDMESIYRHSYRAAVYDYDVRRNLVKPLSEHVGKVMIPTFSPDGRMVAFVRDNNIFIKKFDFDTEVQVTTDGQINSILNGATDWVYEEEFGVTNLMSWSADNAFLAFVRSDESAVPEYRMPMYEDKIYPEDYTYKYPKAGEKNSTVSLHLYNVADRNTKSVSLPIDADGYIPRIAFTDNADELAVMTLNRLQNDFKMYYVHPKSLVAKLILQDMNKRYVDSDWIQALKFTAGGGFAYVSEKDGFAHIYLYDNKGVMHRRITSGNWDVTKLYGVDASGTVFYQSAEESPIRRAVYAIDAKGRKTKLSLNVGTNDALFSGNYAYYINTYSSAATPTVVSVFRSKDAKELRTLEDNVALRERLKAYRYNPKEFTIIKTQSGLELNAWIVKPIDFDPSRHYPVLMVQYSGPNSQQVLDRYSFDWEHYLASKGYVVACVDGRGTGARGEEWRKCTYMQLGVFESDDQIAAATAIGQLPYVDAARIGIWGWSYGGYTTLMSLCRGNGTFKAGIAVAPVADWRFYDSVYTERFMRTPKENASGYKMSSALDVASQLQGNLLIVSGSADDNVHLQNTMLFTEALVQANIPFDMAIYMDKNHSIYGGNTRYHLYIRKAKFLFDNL

[2] = biological target: Dipeptidyl peptidase IV (Porphyromonas gingivalis) (UniProt O31048); test: Inhibition of Porphyromonas gingivalis N-terminal His-tagged DPP4 expressed in Escherichia coli at 10 uM using Gly-Pro-p-nitroanilide as substrate relative to control
[3] = Selectivity index, ratio of IC50 for human DPP4 to IC50 for Porphyromonas gingivalis N-terminal His-tagged DPP4 expressed in Escherichia coli

Sequence of Dipeptidyl peptidase IV (Porphyromonas gingivalis) (O31048 20-723 limits assumed): as above

SMILES | inhibition [1] [%] | IC50 (Dipeptidyl peptidase IV) | inhibition [2] [%] | IC50 (Dipeptidyl peptidase IV; read-out: IC50) [µM] | Ratio IC50 [3]
NC(CC(=O)N1CCN(C(c2ccccc2)c2ccc(Cl)cc2)CC1)C(=O)N1Cc2ccccc2C1 (stereo unspecified) | < 50 | IC50 10-100 uM | > 50 |  | 
NCCCCC(N)C(=O)N1Cc2ccccc2C1 (stereo unspecified) | < 50 | IC50 10-100 uM | > 50 |  | 
N#C[C@@H]1CCCN1C(=O)[C@@H](N)CCCCN | < 50 |  | > 50 | 1.6 | 0.16 to 0.2
NCCNC(=O)CCC(N)Cc1ccccc1 (stereo unspecified) | < 50 | IC50 10-100 uM | > 50 |  | 
NC(CCCNC(=NC(=O)OCc1ccccc1)NC(=O)OCc1ccccc1)C(=O)N1CCCC1 (stereo unspecified) | < 50 | IC50 10-100 uM | > 50 |  | 
N[C@@H](CCCCNC(=O)OCc1ccccc1)C(=O)N1CCCC1 | < 50 |  | > 50 | 22 | 0.7 to 0.71
NC(CCCCNCc1ccccc1)C(=O)N1Cc2ccccc2C1 (stereo unspecified) | < 50 |  | > 50 | 11 | > 4.5
C=C1CCN(C(=O)C(N)CC(=O)N2CCN(C(c3ccc(F)cc3)c3ccc(F)cc3)CC2)C1 (stereo unspecified) | < 50 | IC50 10-100 uM | > 50 |  | 
NC(C(=O)N1Cc2ccccc2C1)C1CCCCC1 (stereo unspecified) | < 50 | IC50 10-100 uM | > 50 |  | 
O=C(C1CC(NCc2ccc3ccccc3c2)CN1)N1Cc2ccccc2C1 (stereo unspecified) | < 50 | IC50 10-100 uM | > 50 |  | 
N#C[C@@H]1C[C@H](N=[N+]=[N-])CN1C(=O)[C@@H](N)CCC(=O)NCCN | < 50 |  | > 50 | 0.8 | 0.5
N[C@@H](CC(=O)N1CCn2c(nnc2C(F)(F)F)C1)Cc1cc(F)c(F)cc1F [SITAGLIPTIN] | < 50 |  | > 50 | 18 | 
N#C[C@@H]1C[C@H](N=[N+]=[N-])CN1C(=O)[C@@H](N)CCC(=O)N1CCNCC1 | < 50 |  | > 50 | 0.48 | 1.2
CC(C)[C@H](N)C(=O)N1CCCC1B(O)O (stereo partly specified) | < 50 |  | > 50 | 0.14 | 
NC(CCCCN(Cc1ccccc1)Cc1ccccc1)C(=O)N1CCCC1 (stereo unspecified) | < 50 |  | > 50 | 3.4 | 0.88
N#C[C@@H]1CCCN1C(=O)[C@@H](N)CCCCNC(=O)OCc1ccccc1 | < 50 |  | > 50 | 1.5 | 0.02
CC1CC(N=[N+]=[N-])CN1C(=O)C(N)CCC(=O)N1CCN(C(c2ccc(F)cc2)c2ccc(F)cc2)CC1 (stereo unspecified) | < 50 |  | > 50 | 8 | 0.25
NC(CC(=O)N1CCN(C(c2ccccc2)c2ccc(Cl)cc2)CC1)C(=O)N1Cc2ccc(F)cc2C1 (stereo unspecified) | < 50 |  | > 50 | 17 | > 5.9

SMILES | inhibition [1] [%] | IC50 (Dipeptidyl peptidase IV) | inhibition [2] [%] | IC50 (Dipeptidyl peptidase IV; read-out: IC50) [µM] | Ratio IC50 [3]
NC(CCCCNC(=O)Nc1ccccc1)C(=O)N1CCCC1 (stereo unspecified) | < 50 | IC50 10-100 uM | > 50 |  | 
C=C1CC(C)N(C(=O)C(N)CCC(=O)N2CCN(C(c3ccc(F)cc3)c3ccc(F)cc3)CC2)C1 (stereo unspecified) | < 50 | IC50 10-100 uM | > 50 |  | 
NC(CCCCNC(=O)Oc1ccccc1)C(=O)N1CCCC1 (stereo unspecified) | < 50 | IC50 10-100 uM | > 50 |  | 
NC(CCCCN(Cc1ccccc1)Cc1ccccc1)C(=O)N1Cc2ccccc2C1 (stereo unspecified) | < 50 | IC50 10-100 uM | > 50 |  | 
N#CC1CC(N=[N+]=[N-])CN1C(=O)C(N)CCCCN(Cc1ccc2ccccc2c1)Cc1ccc2ccccc2c1 (stereo unspecified) | < 50 |  | > 50 | 0.58 | 
NC(CC(=O)N1CCN(C(c2ccc(F)cc2)c2ccc(F)cc2)CC1)C(=O)N1Cc2ccc(F)cc2C1 (stereo unspecified) | < 50 |  | > 50 | 22 | 2.7
NC(CC(=O)N1CCN(C(c2ccc(F)cc2)c2ccc(F)cc2)CC1)C(=O)N1CCC(C(F)(F)F)C1 (stereo unspecified) | < 50 | IC50 10-100 uM | > 50 |  | 
NC(CCCCNC(=O)c1ccccc1)C(=O)N1CCCC1 (stereo unspecified) | < 50 | IC50 10-100 uM | > 50 |  | 
NCCCCC(N)C(=O)N1CCSC1 (stereo unspecified) | < 50 |  | > 50 | 19 | 0.09
NC(CC(=O)N1CCN(C(c2ccc(F)cc2)c2ccc(F)cc2)CC1)C(=O)N1Cc2ccccc2C1 (stereo unspecified) | < 50 | IC50 10-100 uM | > 50 |  | 
CC1C[C@@H](C#N)N(C(=O)[C@@H](N)CC(=O)N2CCN(C(c3ccc(F)cc3)c3ccc(F)cc3)CC2)C1 (stereo partly specified) | < 50 | IC50 10-100 uM | > 50 |  | 
NC(CCCCNCc1ccc2ccccc2c1)C(=O)N1Cc2ccccc2C1 (stereo unspecified) | < 50 | IC50 10-100 uM | > 50 |  | 
N#CC1CC(N=[N+]=[N-])CN1C(=O)C1CC(NCc2ccc3ccccc3c2)CN1 (stereo unspecified) | < 50 | IC50 10-100 uM | > 50 |  | 
CC1CCN(C(=O)C(N)CC(=O)N2CCN(C(c3ccc(F)cc3)c3ccc(F)cc3)CC2)C1 (stereo unspecified) | < 50 | IC50 10-100 uM | > 50 |  | 
NC(CCCCN(Cc1ccc2ccccc2c1)Cc1ccc2ccccc2c1)C(=O)N1CCCC1 (stereo unspecified) | < 50 |  | > 50 | 3.5 | 1.2
N#C[C@@H]1C[C@H](N=[N+]=[N-])CN1C(=O)[C@@H](N)CCCCN | < 50 |  | > 50 | 0.33 | 6.58 to 6.7
N[C@@H](CC(=O)N1CCN(C(c2ccc(F)cc2)c2ccc(F)cc2)CC1)C(=O)N1CCCCC1 | < 50 | IC50 10-100 uM | > 50 |  | 

Second part, the molecule after the results:

inhibition [1] [%] | IC50 (Dipeptidyl peptidase IV) | inhibition [2] [%] | IC50 (Dipeptidyl peptidase IV; read-out: IC50) [µM] | Ratio IC50 [3] | SMILES
< 50 | IC50 10-100 uM | > 50 |  |  | Cc1ccc(S(=O)(=O)NCCCCC(N)C(=O)N2CCCC2)cc1 (stereo unspecified)
< 50 |  | > 50 | 3.1 | 1.2 | NC(CCCCNCc1ccccc1)C(=O)N1CCCC1 (stereo unspecified)
< 50 | IC50 10-100 uM | > 50 |  |  | CN(CCCCC(N)C(=O)N1CCCC1)Cc1ccccc1 (stereo unspecified)
< 50 | IC50 10-100 uM | > 50 |  |  | CCC(C)C(N)C(=O)N1CCSC1 (stereo unspecified)
< 50 | IC50 10-100 uM | > 50 |  |  | CCC(C)C(N)C(=O)N1CC=CC1 (stereo unspecified)
< 50 | IC50 10-100 uM | > 50 |  |  | C=C1CCN(C(=O)C(N)C(C)CC)C1 (stereo unspecified)
< 50 | IC50 10-100 uM | > 50 |  |  | CC[C@@H](C)[C@H](N)C(=O)N1C[C@H](N=[N+]=[N-])C[C@H]1C#N
< 50 |  | > 50 | 9.4 | 0.52 | CNCCCCC(N)C(=O)N1CCCC1 (stereo unspecified)
< 50 | IC50 10-100 uM | > 50 |  |  | CCC(C)C(N)C(=O)N1CC=CCC1 (stereo unspecified)
< 50 |  | > 50 | 19 |  | CC(C)C(N)C(=O)N1CCCC1 (stereo unspecified)
< 50 | IC50 10-100 uM | > 50 |  |  | CCC(C)C(N)C(=O)N1Cc2ccccc2C1 (stereo unspecified)
< 50 | IC50 10-100 uM | > 50 |  |  | CC[C@@H](C)[C@@H](N)C(=O)N1CCC(C#N)C1 (stereo partly specified)
< 50 | IC50 10-100 uM | > 50 |  |  | CCCCC(N)C(=O)N1CCCC1 (stereo unspecified)
< 50 | IC50 10-100 uM | > 50 |  |  | CC(=O)NCCCCC(N)C(=O)N1CCCC1 (stereo unspecified)
< 50 | IC50 10-100 uM | > 50 |  |  | CC[C@H](C)[C@H](N)C(=O)N1CCCC1
< 50 |  | > 50 | 100 |  | CC(O)C(N)C(=O)N1CCCC1 (stereo unspecified)
< 50 | IC50 10-100 uM | > 50 |  |  | CCC(C)C(N)C(=O)N1CCC(N=[N+]=[N-])C1 (stereo unspecified)
< 50 |  | > 50 | 0.31 | 1.1 | CC[C@H](C)[C@H](N)C(=O)N1C[C@@H](N=[N+]=[N-])C[C@H]1C#N
< 50 | IC50 10-100 uM | > 50 |  |  | NC(CCCNC(=O)OCc1ccccc1)C(=O)N1CCCC1 (stereo unspecified)
< 50 | IC50 10-100 uM | > 50 |  |  | CS(=O)(=O)NCCCCC(N)C(=O)N1CCCC1 (stereo unspecified)
< 50 | IC50 10-100 uM | > 50 |  |  | CCC(C)C(N)C(=O)N1Cc2ccc(F)cc2C1 (stereo unspecified)
< 50 | IC50 10-100 uM | > 50 |  |  | CCC(C)C(N)C(=O)N1CCC(C)C1 (stereo unspecified)
< 50 |  | > 50 | 22 | 0.18 | CCC(C)C(N)C(=O)N1CCCC1 (stereo unspecified)
 |  | > 50 | 29 |  | CC(C)[C@H](N)C(=O)N1CCCC1
< 50 | IC50 10-100 uM | > 50 |  |  | CC[C@H](C)[C@H](N)C(=O)N1CCC(F)C1 (stereo partly specified)
 | IC50 10-100 uM | > 50 |  |  | CC[C@@H](C)[C@H](N)C(=O)N1Cc2ccccc2C1
< 50 | IC50 10-100 uM | > 50 |  |  | N=C(N)NCCCC(N)C(=O)N1CCCC1 (stereo unspecified)
< 50 | IC50 10-100 uM | > 50 |  |  | CCC(C)C(N)C(=O)N1CCC(Cl)C1 (stereo unspecified)
 |  | > 50 | 19 |  | CC[C@H](C)[C@H](N)C(=O)N1CCSC1

Source: ChEMBL document CHEMBL4130390, “Crystal structure of Porphyromonas gingivalis dipeptidyl peptidase 4 and structure-activity relationships based on inhibitor profiling” (Eur J Med Chem, 2017)
